Read-outs that look alike come from different tables or passages of the source.
How the values were obtained:
[1] = Solubility to fluorine-based solvent; conditions: 25° C.
Procedure: Various fluorine-based solvents were each added in a manner that a concentration was to be 1% by mass, and the resultant was stirred with maintaining the temperature at 25° C. The solubility was evaluated based on the following evaluation criteria.
• 1: The ionic liquid was dissolved in the fluorine-based solvent, and no precipitation was generated even after leaving the solution to stand. • 2: The ionic liquid was insoluble to the fluorine-based solvent, or was partially dissolved but precipitation was generated when the solution was left to stand. <<Friction Properties>> —Production of Lubricant-Coated Hard Disk—

[2] = Measurement of thermal decomposition temperature (TG-DTA, 5% weight reduction); format: physicochemical
Procedure: As measuring conditions, the heating speed was 10° C./min and the air flow rate was 200 mL/min.

[3] = Comprehensive evaluation (thermal decomposition temperature, friction properties, solubility)
[4] = TG-DTA, heating speed 10° C./min, air flow 200 mL/min

Compound | Solubility to fluorine-based solvent ([1]; Novec 7100, 1% by mass) | Solubility to fluorine-based solvent ([1]; Novec 7200, 1% by mass) | Solubility to fluorine-based solvent ([1]; Novec 7300, 1% by mass) | Solubility to fluorine-based solvent ([1]; Vertrel XF, 1% by mass) | Thermal decomposition (5% weight reduction) temperature [2, 4] [°C] | Thermal decomposition (5% weight reduction) temperature [2] [°C] | Thermal stability and friction coefficient (in words) [3]
NCCOCC(F)(F)OC(F)(F)C(F)(F)OC(F)(F)C(F)(F)OC(F)(F)C(F)(F)C(F)(F)C(F)(F)F.O=S(=O)(O)CCCOCC(F)(F)OC(F)(F)C(F)(F)OC(F)(F)C(F)(F)OC(F)(F)C(F)(F)C(F)(F)C(F)(F)F [Ex. 1, PFTEG amine-PFTEG sulfonic acid salt] | 1 | 1 | 1 | 1 | 246 | – | –
NCCC(F)(F)C(F)(F)C(F)(F)C(F)(F)C(F)(F)C(F)(F)C(F)(F)C(F)(F)F.O=S(=O)(O)CCCOCC(F)(F)OC(F)(F)C(F)(F)OC(F)(F)C(F)(F)OC(F)(F)C(F)(F)C(F)(F)C(F)(F)F [Ex. 2, 1H,1H,2H,2H-perfluorodecylamine-PFTEG sulfonic acid salt] | – | – | – | – | – | 254 | –
NCCOCC(F)(F)OC(F)(F)C(F)(F)OC(F)(F)C(F)(F)OC(F)(F)C(F)(F)C(F)(F)C(F)(F)F.O=S(=O)(O)C(F)(F)C(F)(F)C(F)(F)C(F)(F)F [Ex. 3, PFTEG amine-perfluorobutane sulfonic acid salt] | 1 | 1 | 1 | 1 | 302 | – | more excellent
NCCC(F)(F)C(F)(F)C(F)(F)C(F)(F)C(F)(F)C(F)(F)C(F)(F)C(F)(F)F.O=C(O)C(F)(F)OC(F)(F)C(F)(F)OC(F)(F)C(F)(F)OC(F)(F)C(F)(F)C(F)(F)C(F)(F)F [Ex. 4, 1H,1H,2H,2H-perfluorodecylamine-perfluoro-3,6,9-trioxatridecanoic acid salt] | 1 | 1 | 1 | 1 | 169 | – | –
NCCOCC(F)(F)OC(F)(F)C(F)(F)OC(F)(F)C(F)(F)OC(F)(F)C(F)(F)C(F)(F)C(F)(F)F.O=S(=O)(NS(=O)(=O)C(F)(F)C(F)(F)C(F)(F)C(F)(F)F)C(F)(F)C(F)(F)C(F)(F)C(F)(F)F [Ex. 5, PFTEG amine-bis(perfluorobutanesulfonyl)imide salt] | 1 | 1 | 1 | 1 | 291 | – | –
NCCC(F)(F)C(F)(F)C(F)(F)C(F)(F)C(F)(F)C(F)(F)C(F)(F)C(F)(F)F.O=S(=O)(O)C(F)(F)C(F)(F)C(F)(F)C(F)(F)F [compound 2, 1H,1H,2H,2H-perfluorodecylamine-perfluorobutane sulfonic acid salt, reference compound] | 2 | 2 | 2 | 2 | 308 | – | –
octadecylamine-perfluoroheptanoic Acid Salt [compound 3, reference compound] | 2 | 2 | 2 | 2 | 204 | – | –
octylamine-PFTEG sulfonic Acid Salt [Comp. Ex. 1, reference compound] | – | – | – | – | 276 | – | –
